From US4851411A, “5-monoaryl as.-triazin-3-ones substituted in 2-position, and their use as medicaments” (Pierre Fabre Medicament, priority 1986, dated 1989)
Where a name gives a salt, the structure may show the parent alone.

Key:
Solubility = type: physicochemical
[1] = Anxiolytic activity, group of tests (LAB-X elevated plus-maze, SKINNER, VOGEL); type: in vivo, rat; details: 30 mg/kg by mouth
Excerpt: These compounds were also studied in order to test for anxiolytic activity using a group of tests
(Ref.: LAB-X: Sh. Pellow, Ph. Chopin, S. E. File and M. Briley--Validation of open:closed arm entries in an elevated plus-maze as a measure of anxiety in the rat (Journal of Neuroscience Methods, 14 (1983), 149-167)
SKINNER: GELLER and SEIFTER, Psychopharmacologia (1960) 1, 482-492

5 HTP = assay: Potentialization of 5 HTP; type: in vivo
Excerpt: The tests used for the pharmacological screening are:
the potentialization of 5 HTP (Ref.: Christensen, A. V. et al., Eur. J. of Pharm. (1977), 41, 153-162)

[2] = Toxicity study in the mouse, oral single dose (LD50); type: in vivo; details: for toxicity: summary in conclusion
Experimental: The toxicity study was carried out in the conventional mouse, weighing about 20 g.
The substances were administered orally in a single dose of 300 and 1000 mg/kg respectively. At these doses we were not able to determine the LD50 's which are higher >1000 mg/kg.

CC(C)C(=O)Cn1ncc(-c2ccccc2)nc1=O [Example 22, 2-(3-methyl-2-one butyl) 5-phenyl as.-triazine]
solubility in alcohols in the hot (Solubility; in the hot): soluble | solubility in chloroform (Solubility): Soluble | solubility in methylene chloride (Solubility): Soluble | solubility in water (Solubility): insoluble | anxiolytic activity [1]: significant results

COc1ccc(-c2cnn(C3CCOC3=O)c(=O)n2)cc1 (stereo not shown) [Example 21, 2-γ-butyrolactone 3-oxo 5-p-methoxyphenyl as.-triazine]
ED50 (5 HTP): 27 mg/kg | solubility in alcohols (Solubility): poorly soluble | solubility in benzene (Solubility): poorly soluble | solubility in chloroform (Solubility): Soluble | solubility in methylene chloride (Solubility): Soluble | solubility in water (Solubility): insoluble | anxiolytic activity [1]: significant results | toxicity [2]: very low toxicity

COc1ccc(-c2cnn(CC(=O)c3ccccc3)c(=O)n2)cc1 [Example 37, 2-Phenacyl 3-oxo 5-p.methoxyphenyl as triazine]
solubility in acetic acid (Solubility): Soluble | solubility in water (Solubility): insoluble

COc1ccc(-c2cnn(C(C(=O)c3ccccc3)c3ccccc3)c(=O)n2)cc1 (stereo not shown) [Example 34, 2-N-desyl 3-oxo 5-p-methoxyphenyl as.-triazine]
solubility in alcohols in the hot (Solubility; in the hot): Soluble | solubility in chloroform (Solubility): rather soluble | solubility in ether (Solubility): poorly soluble | solubility in water (Solubility): insoluble

CC(=O)Cn1ncc(-c2ccc(O)cc2)nc1=O [Example 2, 2-N-acetonyl 3-oxo 5-p-hydroxyphenyl as.-triazine]
solubility in alcohols in the hot (Solubility; in the hot): Soluble in the hot, recrystallizes in the cold | solubility in benzene (Solubility): Insoluble | solubility in chloroform (Solubility): Insoluble | solubility in dilute aqueous bases (Solubility; dilute aqueous bases): soluble | solubility in ether (Solubility): Insoluble | solubility in water (Solubility): rather soluble

COc1ccc(-c2cnn(CC(C)=O)c(=O)n2)cc1 [Example 1, 2-acetonyl 3-oxo 5-p-methoxyphenyl ax.-triazine]
ED50 (5 HTP): 25 mg/kg | anxiolytic activity [1]: significant results | LD50 ([2]; in vivo, mouse, oral, single dose): > 3000 mg/kg | toxicity [2]: very low toxicity

COc1ccc(-c2cnn(C(c3ccccc3)c3ccccc3)c(=O)n2)cc1 [Example 30, 2-N-diphenylmethyl 3-oxo 5-p-methoxyphenyl as.-triazine]
solubility in alcohols in the hot (Solubility; in the hot): Soluble | solubility in chloroform (Solubility): insoluble | solubility in methylene chloride (Solubility): Soluble | solubility in water (Solubility): insoluble

Cc1ccc(-c2cnn(C(C(=O)c3ccccc3)c3ccccc3)c(=O)n2)cc1 (stereo not shown) [Example 36, 2-N-desyl 3-oxo 5-p-methylphenyl as.-triazine]
solubility in alcohols in the hot (Solubility; in the hot): Soluble | solubility in chloroform (Solubility): Soluble | solubility in methylene chloride (Solubility): Soluble | solubility in water (Solubility): insoluble

COc1ccc(-c2cnn(CC(N)=O)c(=O)n2)cc1 [Example 32, 2-N-acetamido 3-oxo 5-p-methoxyphenyl as.-triazine]
ED50 (5 HTP): 20 mg/kg | solubility in alcohols (Solubility): Insoluble | solubility in chloroform (Solubility): Insoluble | solubility in ether (Solubility): Insoluble | solubility in water (Solubility): Insoluble | toxicity [2]: very low toxicity

COc1ccccc1-c1cnn(CC(C)=O)c(=O)n1 [Example 23, 2-acetonyl 3-oxo 5-o-methoxyphenyl as.-triazine]
ED50 (5 HTP): 50 mg/kg | solubility in chloroform (Solubility): Soluble | solubility in ether (Solubility): insoluble | solubility in methylene chloride (Solubility): Soluble | solubility in water (Solubility): insoluble

CC(=O)COc1ccc(-c2cnn(C)c(=O)n2)cc1 [Example 9, 2-methyl 3-oxo 5-p-acetonoxyphenyl as.-triazine]
ED50 (5 HTP): 40 mg/kg | solubility in aqueous dilute acids (Solubility; aqueous dilute acids): Soluble | solubility in chloroform (Solubility): insoluble | solubility in methylene chloride (Solubility): Soluble | solubility in water (Solubility): insoluble | anxiolytic activity [1]: significant results

COc1ccc(C(=O)Cn2ncc(-c3ccc(OC)cc3)nc2=O)cc1 [Example 40, 2-p.methoxyphenacyl 3-oxo 5-p.methoxyphenyl as triazine]
solubility in acetic acid (Solubility): Insoluble | solubility in alcohols (Solubility): Insoluble | solubility in water (Solubility): Insoluble

COc1ccc(-c2cnn(C(C)C(C)=O)c(=O)n2)cc1 (stereo not drawn) [Example 4, 2-alpha-methylacetonyl 3-oxo 5-p-methoxyphenyl as.-triazine]
ED50 (5 HTP): 35 mg/kg | solubility in chloroform (Solubility): Soluble | solubility in methylene chloride (Solubility): Soluble | solubility in water (Solubility): insoluble | anxiolytic activity [1]: significant results | toxicity [2]: very low toxicity

Cc1ccc(-c2cnn(CCCN3CCN(c4cccc(Cl)c4)CC3)c(=O)n2)cc1 [Example 14, 2-γ(m-chlorophenylpiperazine)-propyl 3-oxo 5-p-methylphenyl as.-triazine hydrochloride]
solubility in chloroform (Solubility): Soluble | solubility in ether (Solubility): insoluble | solubility in methylene chloride (Solubility): Soluble | solubility in water (Solubility): insoluble

COc1ccc(-c2cnn(CCCC(=O)c3ccc(F)cc3)c(=O)n2)cc1 [Example 33, 2-N-(γp-fluorobutyrophenone) 3-oxo 5-p-methoxyphenyl as.-triazine]
solubility in chloroform (Solubility): Soluble | solubility in methylene chloride (Solubility): Soluble | solubility in water (Solubility): insoluble

COc1ccc(C2C=NN(CCCN3CCN(c4cccc(Cl)c4)CC3)C(=O)N2)cc1 (stereo not shown) [Example 12, 2-N-γ propyl(m-chlorophenylpiperazine) 3-oxo 4,5-dihydro 5-p-methoxyphenyl as.-triazine]
solubility in alcohols in the hot (Solubility; in the hot): Soluble | solubility in aqueous dilute acids in the hot (Solubility; aqueous dilute acids, in the hot): Soluble | solubility in chloroform (Solubility): Soluble | solubility in ether (Solubility): insoluble | solubility in methylene chloride (Solubility): Soluble | solubility in water (Solubility): insoluble

COc1ccc(-c2cnn(CCN3CCN(c4cccc(C(F)(F)F)c4)CC3)c(=O)n2)cc1 [Example 16, 2-β ethyl (m-trifluoromethylphenyl) piperazine 3-oxo 5-p-methoxyphenylas.-triazine]
solubility in benzene (Solubility): poorly soluble | solubility in chloroform (Solubility): Soluble | solubility in ether (Solubility): insoluble | solubility in methylene chloride (Solubility): Soluble | solubility in water (Solubility): insoluble

CC(=O)Cn1ncc(-c2ccc(C)cc2)nc1=O [Example 6, 2-acetonyl 3-oxo 5-p-methylphenyl as.-triazine]
solubility in chloroform (Solubility): Soluble | solubility in ether (Solubility): insoluble | solubility in methylene chloride (Solubility): Soluble | solubility in water (Solubility): insoluble

CCC(=O)Cn1ncc(-c2ccc(OC)cc2)nc1=O [Example 41, 2-(oxo-2' butyl) 3-oxo 5-p.methoxyphenyl as triazine]
solubility in acetic acid (Solubility): Soluble | solubility in alcohols (Solubility): Insoluble | solubility in water (Solubility): Insoluble
